Key:
[1] = test system: SA 29213; test: MILab-ELISA assay; assay type: cell-based, S. aureus; conditions: penicillin G 16 μg/mL
[2] = test system: drug-resistant (BAA40) S. aureus; test: MILab-based MiChip (SERS) assay; assay type: cell-based
[3] = test system: MRSA BAA39; test: Flow cytometry of metabolic labelling under penicillin G; assay type: cell-based, S. aureus; conditions: penicillin G up to 128 μg/mL, 3 h
[4] = test system: BAA39; test: MILab-ELISA assay; assay type: cell-based, S. aureus; conditions: penicillin G 16 μg/mL
[5] = test system: methicillin-resistant S. aureus (MRSA BAA39); test: Metabolic labelling (D-Ala-N3 / DBCO-AF488) fluorescence under penicillin G treatment; assay type: cell-based
[6] = test system: SA 29213; test: MILab-microarray assay; assay type: cell-based, S. aureus
[7] = test system: S. aureus 29213; test: Flow cytometry of metabolic labelling under penicillin G; assay type: cell-based; conditions: penicillin G 0-128 μg/mL, 3 h, vs untreated controls
[8] = test system: SA 29213; test: MILab-LFA assay; assay type: cell-based, S. aureus
[9] = test system: drug-susceptible (SA 29213) S. aureus; test: MILab-based MiChip (SERS) assay; assay type: cell-based
[10] = test system: methicillin-susceptible S. aureus (SA 29213); test: Metabolic labelling (D-Ala-N3 / DBCO-AF488) fluorescence under penicillin G treatment; assay type: cell-based
[11] = test system: MRSA BAA38; test: MILab-microarray assay; assay type: cell-based, S. aureus
[12] = test system: BAA39; test: MILab-LFA assay; assay type: cell-based, S. aureus
[13] = penicillin G 16 μg/mL, 1×10^4 CFU/mL
[14] = penicillin G 16 μg/mL, 15 min to 4 hours

## CC1(C)S[C@@H]2[C@H](NC(=O)Cc3ccccc3)C(=O)N2[C@H]1C(=O)[O-].[Na+] [penicillin G, Penicillin G sodium]
[1]
  metabolism of bacteria (MILab-ELISA OD 650 nm): completely inhibit the metabolism
[2]; dose-dependence test, resistant S. aureus
  concentration at which weak Raman signals are generated: 128 µg/mL
[2]; [13]
  Raman (SERS) signal over incubation time: distinct Raman signal as short as 30 min
[3]
  labelling degree of individual bacteria (flow cytometry): maintained significant labelling
[4]
  metabolism of bacteria (MILab-ELISA OD 650 nm): high metabolic activity
[5]; penicillin G 16 μg/mL, 0.5 to 5 h, resistant MRSA BAA39
  fluorescence intensity of metabolic labelling over incubation time: increased quickly with increasing incubation time
[5]; penicillin G 16 μg/mL, resistant strains
  metabolic labelling of single bacteria (confocal imaging): selective labelling
[5]; penicillin G 2-128 μg/mL, resistant bacteria
  fluorescence intensity of metabolic labelling at varying antibiotic concentration: much stronger fluorescence intensity
[6]; Penicillin G 0 to 32 μg/mL, 2 hours, vs untreated controls
  microarray fluorescence signal at increasing drug concentration: considerably reduced signal
[6]; [14]
  microarray fluorescence signal over drug treatment time: negligible signal even at 4 hours
[7]
  labelling degree of individual bacteria (flow cytometry): considerably reduced labelling
[8]; penicillin G, up to 4 hours
  MILab-LFA signal over drug treatment (incubation) time: no signal even after 4 hours
[8]; susceptible bacteria SA 29213
  concentration that completely inhibits the bacteria (MILab-LFA test line): 4 µg/mL
[9]; dose-dependence test, susceptible S. aureus
  concentration at which weak Raman signals are generated: 8 µg/mL
[9]; [13]
  Raman (SERS) signal over incubation time: negligible signals all the time
[10]; penicillin G 16 μg/mL, 0.5 to 5 h, susceptible SA 29213
  fluorescence intensity of metabolic labelling over incubation time: kept constraint
[10]; penicillin G 16 μg/mL, susceptible strains
  metabolic labelling of single bacteria (confocal imaging): negligible labelling
[10]; penicillin G 2-128 μg/mL, susceptible bacteria
  fluorescence intensity of metabolic labelling at varying antibiotic concentration: completely inhibit the metabolic labelling
[11]; Penicillin G 0 to 32 μg/mL, 2 hours
  microarray fluorescence signal at increasing drug concentration: maintained significant signal
[11]; [14]
  microarray fluorescence signal over drug treatment time: increased with increasing penicillin G treatment time
[12]; penicillin G, up to 4 hours
  MILab-LFA signal over drug treatment (incubation) time: showed signal after 30 min
[12]; resistant bacteria BAA39
  concentration that completely inhibits the bacteria (MILab-LFA test line): 64 µg/mL

From patent publication US20250059581A1, “METHOD OF BACTERIAL IDENTIFICATION AND TESTING OF BACTERIUM RESISTANT TO ONE OR MORE ANTIBIOTICS” (Nanyang Technological University, priority 2021, published 2025)
